Reference: article PMC5072831, “Novel Nuclear Factor-KappaB Targeting Peptide Suppresses β-Amyloid Induced Inflammatory and Apoptotic Responses in Neuronal Cells” (PLoS ONE, 2016)

Experiments:
[1] = test system: NF-κΒ p65; conditions: ref [61]; cited from earlier work
From the text: There is increasing interest in developing disease modifying agents for neurodegenerative diseases based on molecular pathogenesis. […] As opposed to high throughput screening, computational design of interface peptide mimics followed by functional evaluation represe ...

[2] = test system: caspase-3; conditions: ref [70], [71]; cited from earlier work
From the text: Multiple caspases including caspase-3 and caspase-9 are transcriptionally elevated in AD [66, 67].

[3] = ref [67]; cited from earlier work
[4] = test system: Caspase-9 mRNA; test: Caspase-9 mRNA in HFB by quantitative real-time PCR; assay type: cell-based, human; conditions: Aβ1–42 exposure alone
Method: (§1) Primary HFB exposed to Aβ1–42 and treated with GA or CP as above was harvested at the end of 24h. Total cellular RNA was isolated using Qiagen kit (Invitrogen, Carlsbad, CA) following manufacturer's protocol. Total RNA (2–4 μg) was reverse transcribed using iScript cDNA synthesis kit (Biorad, CA). The concentration of the cDNA was measured at 260 and 280 nm by the Gensys5 model UV-visible spectrophotometer (Thermoelectronic Corp.,CA). Real-time PCR was performed by using the SYBR green/ROX qPCR master mix (SABiosciences, Frederick, MD) according to manufacturer's recommendations on the CFX96 Touch™ Real-Time PCR Detection System (Biorad laboratories, Hercules, California, USA). Each reaction contains 2×12.5 μl of SYBR green Master Mix, 1 μl of 10 μM of primers and 50 ng of the cDNA, to a total volume of 25 μl. The thermal cycling conditions included an initial denaturation step at 50°C for 2 min, 95°C for 3 min, 39 cycles at 95°C for 30 s, annealing temperature at 54°C for 30 s and extension at 72°C for 30s. The primers are F-GAPDH-5′-[…]-3′; R-GAPDH:5′-G […]-3′(102bp); F-IL-1β:5′-[…]-3′; R-IL-1β:5′[…]-3′ (89 bp); F-IL-6:5′-[…] […] The difference in each gene-specific threshold between the samples from vehicle treated and GA or CP treated cells was determined to obtain the relative change in the specific mRNA. The magnitude of change in the mRNA was expressed as 2^ΔΔCt. […]

[5] = test system: Caspase-3 mRNA; test: Caspase-3 mRNA in HFB by quantitative real-time PCR; assay type: cell-based, human; conditions: Aβ1–42 exposure alone
Method: as §1

[6] = test system: IL-1β mRNA; test: IL-1β mRNA in HFB by quantitative real-time PCR; assay type: cell-based, human; conditions: Aβ1–42 exposure alone
Method: as §1

[7] = test system: IL-6 mRNA; test: IL-6 mRNA in HFB by quantitative real-time PCR; assay type: cell-based, human; conditions: Aβ1–42 exposure alone
Method: as §1

[8] = test system: human fetal brain cells (HFB); test: CTG viability in human primary mixed brain cultures (HFB); assay type: cell-based
Method: HFB were prepared and cultured as described (S1 and S2 Docs). Briefly, cells were cultured in Neurobasal medium (Invitrogen) without phenol red supplemented with 1xB27, […], 1xantibiotic cocktail, 5ng/mL recombinant fibroblast growth factor 2 (bFGF) (Invitrogen), and 2μL/mL Normocin (InVivoGen, San Diego, CA, USA). Cells were counted and seeded onto poly-D-lysine (Sigma-Aldrich) coated 24-well plates (Corning, Lowell, MA, USA) at 1.5x10^5 cells per well and maintained at 37°C in a 5% CO2 incubator. Half media changes were performed every 4th day of culture and morphology was monitored via phase contrast microscopy. Culture medium was removed from cells on day 17 (DIV17) and replaced with Neurobasal medium with B27. […] Cells and conditioned media were harvested and stored for further analysis. Relative ATP concentration was measured using the CTG kit (Promega). Data is presented as ΔRLU = RLU of Aβ1–42 exposed cells–RLU unexposed cells. Conditioned media collected were assessed for specific cytokines using the OptEIA kits (BD Biosciences).

[9] = test system: activated p65 NF-κΒ subunit; test: NF-κB assay, nuclear p65 DNA binding (TransAM) in HFB; assay type: cell-based, human; conditions: HFB exposed to Aβ1–42, 4 h, 5μg nuclear extract, TransAM ELISA; average+/-SD from two experiments
Method: (§2) Primary HFB exposed to Aβ1–42 and treated with GA or CP as above was harvested at the end of 4h. Nuclear and cytoplasmic fractions were extracted using the CelLytic™ NuCLEAR™ Extraction Kit (Sigma) following manufacturer’s protocol. Five microgram of nuclear extracts was incubated in a 96-well plate coated with oligonucleotides containing the NF-κΒ consensus nucleotide sequence (5’-[…]-3’). The activated NF-κΒ bound to DNA was detected by anti-p65 antibody followed by a peroxidase coupled secondary antibody and substrate using the TransAM kit protocol (Active Motif). Nuclear extracts of Raji cells was used as the positive control.
Fig 6 Effect of GILZ analog (GA) treatment on human fetal brain cells (HFB): (A,B): Select GA decrease metabolic activity in Aβ1–42 exposed HFB. […] Cytoplasmic extracts of cells collected at 24h was assessed for viability by CTG assay. […] HFB cells were cultured as above and culture medium collected at 24hrs was assessed for pro-inflammatory (IL-1β, IL-6 and IL-17) (C, D, E and F) and anti-inflammatory (TGF-β) (G) cytokines. […] The p65 DNA binding activity was calculated as the ratio of absorbance from Aβ1–42 stimulated cells to that of unstimulated cells. […]
We measured nuclear p65 using activated NF-κΒ specific ELISA and calculated the p65 DNA binding activity as the ratio of absorbance form Aβ1–42 stimulated cells to that of unstimulated cells. […]

[10] = test system: nuclear p50; test: Nuclear p50 in HFB; assay type: cell-based, human; conditions: HFB exposed to Aβ1–42
Method: as §2
We measured nuclear p65 using activated NF-κΒ specific ELISA and calculated the p65 DNA binding activity as the ratio of absorbance form Aβ1–42 stimulated cells to that of unstimulated cells. […] There was a trend towards decreased nuclear p65 in Aβ1–42 exposed cells treated with GA-1 (6.13+/-1.3) and GA-2 (6.7+/-1.5) as compared to untreated cells (14.75+/-3.5). Nuclear p65 of Aβ1–42 exposed cells treated with CP-1, CP-2 and CP-3 measured 6.8+/-3.9, 10.2+/-2.9 and 10.1+/-3.7 respectively (Fig 6H). […] Although we observed slightly elevated nuclear p50 in Aβ1–42 (6.15+/-1.2) than in unexposed cells (0.5+/-2.7), no difference was observed between GA peptide of CP treated cells and untreated cells (data not shown).

Compound: C=C1C(=O)[C@]23C[C@H]1C[C@H](OC(C)=O)[C@H]2[C@]1(C)[C@@H](OC(C)=O)C[C@H](O)C(C)(C)[C@H]1C(=O)[C@@H]3OC(C)=O [adenanthin]
- effect in AD models [1]: interact with NF-κΒ p65, suppress inflammation and cytotoxicity in AD models

Compound: Oc1ccc(/C=C/c2cc(O)cc(O)c2)cc1 [resveratrol]
- effect in AD models [1]: interact with NF-κΒ p65, suppress inflammation and cytotoxicity in AD models

Compound: COc1ccc2[nH]cc(CCNC(C)=O)c2c1 [melatonin]
- effect on Aβ-induced caspase-3 activity [2]: suppress Aβ-induced caspase-3 activity

Compound: oncocin
- influx into CNS and distribution in brain parenchyma [3]: significant influx into CNS and distribution within the brain parenchyma

Compound: Aβ1–42: Purified Aβ1–42 peptide (American Peptide company), used as stimulus
- caspase 9 mRNA (in words) [4]: upregulation of mRNA for caspase 3 and caspase 9
- caspase 3 mRNA (in words) [5]: upregulation of mRNA for caspase 3
- IL-1β mRNA (in words) [6]: upregulation of mRNA for IL-1β
- IL-6 mRNA (in words) [7]: upregulation of mRNA for IL-1β and IL-6
- average RLU of cultures exposed to Aβ1–42 ([8]; lower end over different experiments): 6067.25+/-903.05
- average RLU of cultures exposed to Aβ1–42 ([8]; upper end over different experiments): 11574.25+/- 4139.3
- nuclear p65 DNA binding activity (ratio of absorbance, Aβ1–42 stimulated / unstimulated) [9]: 14.75+/-3.5
- nuclear p50 [10]: 6.15+/-1.2
